Experimental data taken from US7585939B2, “Chromatin peptides blocking human HIF-1α gene and modulating the downstream related genes” (Geneblue Corporation, priority 2005, dated 2009).
Where no end group is shown, it is not given here.

Experiments:
[1] = test system: Breast cancer; test: Treatment of breast cancer in dogs; type: in vivo; details: 0.5 mg injected directly to the tumor every 15 days; 20th day
Experimental: Breast cancer were found in dogs, with tumor size of 45 mm×50 mm. NH2-Lys Arg Ala Ser Arg Asn Lys Ser Glu Lys Lys Arg Arg-COOH (SEQ ID NO: 20) was directly injected to the tumor, with 0.5 mg each time, and administration was given every 15 days.

[2] = test system: lung cancer existing carcinomatous metastasis to marrow; test: Treatment of patient with lung cancer with metastasis to marrow; type: in vivo, human patient; details: 2 mg i.v. every 5 days
Experimental: Patient with lung cancer existing carcinomatous metastasis to marrow conducted radiotherapy. […] Intravenous injections were given every 5 days, with a dose of 2 mg each time, and one month as a course of treatment. In addition, antibiotics were accompanied to control complicated infection.

[3] = test system: highly metastatic tumor HCT of human colon carcinoma cell line
Experimental: The highly metastatic tumor HCT of human colon carcinoma cell line was inoculated into the forelimb armpit of BALB/c-nu, a kind of female nude mouse, with amount of 5 million tumor cells/per mouse. Five days later, the area of tumor cells implanted was directly treated by injection with the above-mentioned 14 mer peptide solution, by a dose of 5 mg/kg daily. The drug treatment group and control (saline) group were set up, with 25 mice in each side. The experiment mice were killed after 21 days, measuring the tumor weight. After weighing the tumor taken from each mouse, keep it in 4% formaldehyde. Paraffin section shed paraffin for 10 minutes through xylene, then deal with alcohol, stain in hematoxylin, and then stains with 0.5% eosine ethanol. After that, mount with neutral gum. Analyze under microscope and take films.

[4] = test system: small cell lung cancer; test: Treatment of patient with small cell lung cancer with micrometastasis to liver; type: in vivo, human patient; details: 5 mg i.v. every 10 days
Experimental: Patient with small cell lung cancer, at middle and advanced stage, had micrometastasis to liver. […] Administer intravenous injection every 10 days, with 5 mg each time. 15 days later, dyspnoea and referred pain all vanished.

[5] = test system: human breast cancer cell line 0404 MDA-MB-435; test: MDA-MB-435 human breast cancer animal model in BALB/c-nu nude mice; type: in vivo, BALB/c-nu female nude mice
Experimental: The experiment animals with tumor size of 100-200 MM^3 were randomized into four groups, at the 14th day after inoculation of cancer cells. There were 16 mice in each group, treated with different doses of low (0.5 mg/kg), medium (2 mg/kg), and high (5 mg/kg). The control group was treated with normal saline. Administer injection to the tumor surroundings every day after inoculation. The growth tumor volume was measured every 3 days. All experiment mice were killed at the 21st day; tumor growth rate was measured by volume and weight.

[6] = with radiotherapy and antibiotics

Substance: NH2-Lys Arg Ala Ser Arg Asn Lys Ser Glu Lys Lys Arg Arg-COOH (H-KRASRNKSEKKRR-OH) [SEQ ID NO: 20]
- tumor (size 45 mm×50 mm) [1]: Tumor disappeared

Substance: RRKEKSRDAARSRR [14 mer peptide]
- cancer status ([2]; one month as a course): cancer free three months later
- Skeleton ache symptom [2, 6]: decreased after five days
- osteodynia [2, 6]: disappeared 20 days later
- experiment mice in the treatment group with tumors totally disappeared ([3]; 5 mg/kg daily injected at tumor area from day 5, killed after 21 days, 25 mice per group): four
- pathological section of tumor ([3]; 5 mg/kg daily, treatment group vs saline control, FIG. 1(A)/1(B)): a lot of apoptotic bodies and cell debris were found in the central part of the tumor

Substance: NH2-Arg Lys Glu Lys Ser Arg Asp Ala Ala Arg Cys Arg Arg-COOH (H-RKEKSRDAARCRR-OH) [13mer peptide]
- microscopic repeated test of sputum ([4]; 90th day): no malignant cells falling off
- biopsy ([4]; 100th day): no malignant cells
- dyspnoea and referred pain ([4]; 15 days later): all vanished

Substance: NH2-Arg Lys Glu Lys Ser Arg Asp Ala Ala Arg-COOH (H-RKEKSRDAAR-OH) [10 mer peptide]
- breast cancer growth in the animal model ([5]; conclusion from Table 4): inhibit breast cancer growth
- The volume of tumor sizes on average ([5]; high dose 5 mg/kg daily, 3rd day): 1.408 CM^3
- The volume of tumor sizes on average ([5]; high dose 5 mg/kg daily, 7th day): 1.461 CM^3
- The volume of tumor sizes on average ([5]; high dose 5 mg/kg daily, 10th day): 1.253 CM^3
- The volume of tumor sizes on average ([5]; high dose 5 mg/kg daily, 14th day): 2.211 CM^3
- The volume of tumor sizes on average ([5]; high dose 5 mg/kg daily, 17th day): 2.3635 CM^3
- The volume of tumor sizes on average ([5]; high dose 5 mg/kg daily, 21st day): 1.793 CM^3
- The volume of tumor sizes on average ([5]; low dose 0.5 mg/kg daily, 3rd day): 1.475 CM^3
- The volume of tumor sizes on average ([5]; low dose 0.5 mg/kg daily, 7th day): 3.313 CM^3
- The volume of tumor sizes on average ([5]; low dose 0.5 mg/kg daily, 10th day): 4.97 CM^3
- The volume of tumor sizes on average ([5]; low dose 0.5 mg/kg daily, 14th day): 7.668 CM^3
- The volume of tumor sizes on average ([5]; low dose 0.5 mg/kg daily, 17th day): 8.482 CM^3
- The volume of tumor sizes on average ([5]; low dose 0.5 mg/kg daily, 21st day): 8.953 CM^3
- The volume of tumor sizes on average ([5]; medium dose 2 mg/kg daily, 3rd day): 1.295 CM^3
- The volume of tumor sizes on average ([5]; medium dose 2 mg/kg daily, 7th day): 2.133 CM^3
- The volume of tumor sizes on average ([5]; medium dose 2 mg/kg daily, 10th day): 2.721 CM^3
- The volume of tumor sizes on average ([5]; medium dose 2 mg/kg daily, 14th day): 4.879 CM^3
- The volume of tumor sizes on average ([5]; medium dose 2 mg/kg daily, 17th day): 6.274 CM^3
- The volume of tumor sizes on average ([5]; medium dose 2 mg/kg daily, 21st day): 6.119 CM^3
